For test [1], the system named is microorganism. Particulars: French Percuflex catheters dip-coated, sterilized with ethylene oxide, stored; for thirty days after being coated; cited from earlier work.
The subject of test [2] is Staphylococcus aureus. The test is described as follows: Zone of inhibition test of gentamicin-coated stainless steel coupon on agar plate. Type of test: cell-based. The settings on record: 4% gentamicin solution in water nebulized onto 0.5" polished 316 stainless steel coupon; incubated at 38° C. for 24 hours; initial S. aureus inoculum 10^5 bacteria per cubic centimeter. The text has this:
A filter paper disk, or other object, impregnated with a particular antimicrobial agent is applied to an agar medium that is inoculated with the test organism. Where the anti-microbial agent diffuses through the medium, and as long as the concentration of the antimicrobial agent is above the MIC, none of the susceptible organism will grow on or around the disk for some distance. This distance is called a zone of inhibition. […] The diameter of the zone of inhibition is inversely proportional to the MIC.
A 4% gentamicin solution in water was applied to a 0.5″ polished 316 stainless steel coupon using the device described in FIGS. 3A and 3B according to the cycle described in FIG. 10. The stainless steel coupon was then incubated at 38° C. for 24 hours in an agar plate containing an initial Staphylococcus aureus inoculum of 10^5 bacteria per cubic centimeter of solution.

These results are taken from patent publication US11684701B2, “Operating room coating applicator and method” (Ethicon, Inc., priority 2018, dated 2023).

With `Oc1cc(Cl)ccc1Oc1ccc(Cl)cc1Cl` [2,4,4′-tricloro-2-hydroxydiphenyl ether], the “antimicrobial properties (zone of inhibition)” value in test [1] is on record as “produced a zone of inhibition”.
For the compound gentamicin, the “protective zone of inhibition formed around the coupon” value in test [2] is on record as “approximately 8 mm”.
